{"source": "patent US20210147932A1", "about": "“FLUORESCENT PROBES FOR QUANTIFICATION OF DNA DAMAGE AND REPAIR” (The Board of Trustees of the Leland Stanford Junior …, priority 2019, published 2021)", "key": {"AP-DNA [1]": {"system": "AP-DNA", "assay": "Oxime formation kinetics of probe with AP-DNA", "format": "biochemical", "settings": "Tris buffer, probe concentration 10-100 μM"}, "AP-DNA [2]": {"system": "AP-DNA", "assay": "Oxime formation kinetics of probe with AP-DNA", "format": "biochemical", "description": "FIG. 3 provides representative plots for calculations of k2 for Compound (1) (CCVJ1) under various buffer conditions with oligo 15. Plots were fitted in OriginPro 8.5 according to the equation derived by Larsen et. al.^5 for second-order rate constants of oxime formation. Apparent second-order rate constants were calculated as the average of three replicates.\nFIG. 5A provides fluorescence real-times responses for oxime formation under varied conditions. The Time course of oxime formation between Compound (1) (CCVJ1) (5 μM) and AP-DNA (20 μM) under varied buffer conditions (50 mM) is shown. Ionic strength adjusted to 150 mM with NaCl\nNext the reaction rates with CCVJ1 were evaluated. To measure oxime formation kinetics, 5 μM CCVJ1 was reacted with 20 μM AP DNA, and the resulting fluorescence time course was used to determine second-order rate constants by nonlinear regression analysis. Tris buffer was selected since it is commonly used in glycosylase assays with a salt concentration of 100 mM NaCl.\nIn addition to Tris buffer, oxime formation kinetics were also measured for CCVJ1 with AP DNA in a solution of a catalytic amine buffer previously shown to accelerate oxime formation. To this end, it was employed 50 mM N,N-dimethylethylenediamine (DEDA)•HCl buffered to a pH of 7.0 in place of the above Tris buffers. […] Such rapid rates of oxime formation at neutral pH are unprecedented for unactivated aldehydes.\nIn addition to the 5′ and 3′ neighboring bases, studies were done of the effect of the orphaned base Z paired opposite the abasic site on the UBER probe system (FIG. 10, panels C-D). Using the sequence where X=C and Y=G, the identity was varied of the base Z opposite the AP site. […] As a result, the smaller pyrimidine bases yielded a greater fluorescence light up response than the larger purine bases. It was also observed a strong effect by the opposing base on the rate of oxime formation (FIG. 10, panel D). […] This trend is in contrast to the neighboring base effect discussed above in which stronger stacking bases accelerated the rate of oxime formation.\nGeneral procedure for creating AP site DNA: A deoxyuridine containing oligonucleotide (typically 5-20 μM) was treated with 10 U/mL E. coli UDG (New England Biolabs) for 10 minutes at 37° C. in buffer to create AP site containing DNA (see below for MALDI-TOF confirmation). The hairpin was then reacted with probe from a DMSO stock solution (final DMSO concentration <5%).\nFluorescence time courses: Unless otherwise stated, fluorescence time courses were collected on a Fluoroskan Ascent Microplate Fluorometer (Thermo Fisher Scientific) with black, non-binding 384 well plates (Greiner) at a reaction volume of 60 μL with 50 mM Tris buffer pH 7 (ionic strength adjusted to 100 mM with NaCl) with a fluorescein filter set (Ex. 485, Em. 538)."}, "[3]": {"system": "non-lesion containing DNA hairpin (undamaged double stranded DNA)", "assay": "Fluorescence of probe with non-lesion DNA hairpin (non-covalent)", "format": "binding", "settings": "5 μM probe, 20 μM DNA; over free probe", "description": "(§1) FIG. 9 provides interaction between Compound (1) (CCVJ1) and DNA. […] (Ex. 485, Em. 538).\n(§2) To further explore the hypothesis that the oxime rate acceleration in these AP-site DNAs was related to base stacking interactions, the fluorescence was measured of CCVJ1 in the presence and absence of a non-lesion containing DNA hairpin."}, "[4]": {"system": "DNA hairpin containing a tetrahydrofuran spacer (pseudo AP site)", "assay": "Fluorescence of probe with pseudo AP site DNA hairpin (non-covalent)", "format": "binding", "description": "as §1, §2"}}, "note": "Where “and” joins values, the source holds several entries; their conditions need not be identical. Equal values may be shown once."}
{"smiles": "N#C/C(=C\\c1cc2c3c(c1)CCCN3CCC2)C(=O)NCCON", "note": "[CCVJ1]", "values": [{"measurement": "lag time tss of UBER probe coupled assay", "setting": "AP-DNA [1]", "value": "5 to 50", "unit": "min"}, {"measurement": "rate of oxime formation with optimal neighboring bases", "setting": "AP-DNA [2]; AP hairpin X=C, Y=G, Z=C", "value": "320 ± 13", "unit": "M⁻¹ s⁻¹"}, {"measurement": "Apparent second-order rate constant of oxime formation k2", "setting": "AP-DNA [2]; DEDA pH 7 (50 mM N,N-dimethylethylenediamine HCl)", "value": "440 M⁻¹ s⁻¹ and 440 ± 12 M⁻¹ s⁻¹"}, {"measurement": "Apparent second-order rate constant of oxime formation k2", "setting": "AP-DNA [2]; Tris pH 7, 5 μM CCVJ1, 20 μM AP DNA", "value": "147 M⁻¹ s⁻¹ and 147 ± 8 M⁻¹ s⁻¹"}, {"measurement": "Apparent second-order rate constant of oxime formation k2", "setting": "AP-DNA [2]; Tris pH 7.5", "value": "51 ± 2", "unit": "M⁻¹ s⁻¹"}, {"measurement": "Apparent second-order rate constant of oxime formation k2", "setting": "AP-DNA [2]; Tris pH 8", "value": "29 ± 1", "unit": "M⁻¹ s⁻¹"}, {"measurement": "rate in DEDA buffer, times faster than in Tris", "setting": "AP-DNA [2]; pH 7.0", "value": "~3", "unit": "times"}, {"measurement": "rate, times faster than typical oxime formation in neutral aqueous buffer", "setting": "AP-DNA [2]; pH 7.0", "value": "10^3-10^4 times"}, {"measurement": "increase in fluorescence intensity upon addition of non-lesion DNA hairpin", "setting": "[3]", "value": "~2.5", "unit": "fold"}, {"measurement": "fluorescence with pseudo AP hairpin, higher than with undamaged DNA", "setting": "[4]", "value": "~4", "unit": "fold"}, {"measurement": "increase in fluorescence with pseudo AP hairpin over the free probe", "setting": "[4]; 5 μM probe, 20 μM DNA", "value": "~10", "unit": "fold"}]}
